One series deals with T1, A1 receptor (Homo sapiens, UniProt P30542).
T1 construct: purchased
T1 sequence (P30542 1-326): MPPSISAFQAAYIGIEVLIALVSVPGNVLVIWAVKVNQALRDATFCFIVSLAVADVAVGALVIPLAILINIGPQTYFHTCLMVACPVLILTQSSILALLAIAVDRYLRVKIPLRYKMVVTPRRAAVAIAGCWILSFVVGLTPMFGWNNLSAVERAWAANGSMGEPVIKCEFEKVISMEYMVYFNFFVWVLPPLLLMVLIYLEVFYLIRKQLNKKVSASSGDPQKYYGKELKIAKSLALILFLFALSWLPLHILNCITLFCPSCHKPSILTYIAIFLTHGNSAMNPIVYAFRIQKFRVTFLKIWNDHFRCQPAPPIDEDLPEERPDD
Description: Radioligand receptor binding assay, A1 receptor. As to conditions: cell membranes overexpressing A1 receptor, read-out: Potency Ki A1. An outline of the steps:
(§1)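 Membranes from cell lines overexpressing human A2A, A1 or A3 receptors were incubated 60 min at room temperature with the receptor-appropriate [3H] tracer. After filtration and washing in 50 mM Tris HCl pH 7.5, bound label was counted by scintillation. IC50 came from nonlinear regression and Ki from the Cheng-Prusoff equation.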

Series [1] in a line: Plasma pharmacokinetic parameters following intravenous (IV) or oral (PO) administration in rats. The class given is in vivo, Sprague-Dawley rats. As to conditions: male, Sprague-Dawley, rat, plasma; for AUC / bioavailability: 2.5 mg/kg; for clearance: intravenous, 0.5 mg/kg. An outline of the steps: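 Fasted male Sprague-Dawley rats (230-250 g, n=2/group), dosed 0.5 mg/kg IV (jugular) or 2.5 mg/kg PO gavage in water. Plasma sampled 2–1440 min, analyzed by LC-MS/MS; non-compartmental analysis with nominal doses/times gave AUC, Cmax, Tmax, CL, Vss, MRTlast, F.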

For a further series, the target named is T2, A3 receptor (Homo sapiens, UniProt P0DMS8).
T2 construct: purchased
T2 sequence (P0DMS8 1-318): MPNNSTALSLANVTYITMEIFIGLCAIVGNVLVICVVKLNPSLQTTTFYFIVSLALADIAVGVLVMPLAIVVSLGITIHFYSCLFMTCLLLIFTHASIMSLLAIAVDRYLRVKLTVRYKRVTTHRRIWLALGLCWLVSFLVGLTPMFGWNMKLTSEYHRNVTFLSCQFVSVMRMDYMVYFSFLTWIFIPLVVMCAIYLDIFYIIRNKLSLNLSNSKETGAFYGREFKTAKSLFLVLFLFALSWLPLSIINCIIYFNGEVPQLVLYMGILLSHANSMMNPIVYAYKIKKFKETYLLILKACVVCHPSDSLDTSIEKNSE
Description: Radioligand receptor binding assay, A3 receptor. As to conditions: cell membranes overexpressing A3 receptor, read-out: Potency Ki A3. How it is done:
Using conventional receptor binding assay techniques, Compounds 1-24 were assayed to determine binding activity at the A2A, A1, and A3 receptors with the results shown in Table 7.
Receptor binding affinity of Compounds 1-24 was measured using radioligand binding assays using commercially obtained cell membranes prepared from cell lines overexpressing the A2A, A1, or A3 receptors. Briefly, cell membrane preparations from cells expressing the specific receptor were mixed with the appropriate [^3H]-labeled tracer for the specific receptor and the test compound or a known inhibitor of receptor-ligand binding. Following 60 min incubation at room temperature to allow receptor-ligand complex formation, the complexes were collected by filtration, washed with 50 mM Tris HCl (pH 7.5) to remove radioligand that was not receptor-bound, and the remaining radioactivity determined by liquid scintillation counting. Specific radioligand binding was calculated for each test compound concentration and IC50 values were determined by non-linear, regression analysis. Inhibition constants (Ki) were calculated using the equation of Cheng and Prusoff using the observed IC50 of the tested compound, the concentration of radioligand employed in the assay and the experimentally determined values for the Kd of the ligand.

A short description of series [2]: Brain-to-plasma ratio (B/P) after administration. The class given is in vivo, Sprague-Dawley rats. Conditions: Sprague-Dawley, rat, brain-to-plasma ratio at 1 h. Summed up:
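Plasma pharmacokinetic parameters determined after oral (PO) administration; brain-to-plasma concentration ratio (B/P) used as the brain penetration measure.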

In the next series the target is T3, A2A receptor (Homo sapiens, UniProt P29274).
T3 construct: purchased
T3 sequence (P29274 whole entry): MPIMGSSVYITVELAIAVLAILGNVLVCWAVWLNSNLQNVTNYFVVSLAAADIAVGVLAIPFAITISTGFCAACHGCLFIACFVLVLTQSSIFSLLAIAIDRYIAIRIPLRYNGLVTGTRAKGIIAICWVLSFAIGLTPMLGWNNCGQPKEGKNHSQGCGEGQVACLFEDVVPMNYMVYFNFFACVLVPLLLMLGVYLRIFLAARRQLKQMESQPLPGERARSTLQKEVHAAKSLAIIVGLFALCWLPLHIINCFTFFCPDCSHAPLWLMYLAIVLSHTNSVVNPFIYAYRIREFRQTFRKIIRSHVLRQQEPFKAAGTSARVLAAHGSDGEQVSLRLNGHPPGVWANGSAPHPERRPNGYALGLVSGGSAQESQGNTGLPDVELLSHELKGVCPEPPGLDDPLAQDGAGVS
Description: Radioligand receptor binding assay, A2A receptor. Conditions: cell membranes overexpressing A2A receptor, read-out: Potency Ki A2A. Summed up:
as §1

A further series has as its system mouse CT-26 cells. Description: Antitumor activity in CT26 subcutaneous tumor model in Balb/c mice. Type of series: in vivo. As to conditions: day 13 vs vehicle; 30 mg/kg qdx9 PO + anti-PD1 antibody 200 μg/mouse q2dx4 IP. The protocol:
Mice used were ˜ 6-8 week-old female Balb/c mice subcutaneously inoculated with 2×10^6 mouse CT-26 cells. […] The mice were divided into six treatment groups as follows: vehicle (qdx9) PO+IP, Compound 1 (10 mg/kg, qdx9)+an exemplary anti-mouse PD1 (CD279) antibody (BioXCell) (200 μg/mouse, q2dx4); Compound 1 (30 mg/kg, qdx9)+anti-PD1 antibody (200 μg/mouse, q2dx4), Compound 1 (100 mg/kg)+anti-PD1 antibody (200 μg/mouse, q2dx4), anti-PD1 antibody (200 μg/mouse, q2dx4), or preladenant (30 mg/kg, qdx9)+anti-PD1 antibody (200 μg/mouse, q2dx4). Compound 1 and preladenant were administered orally. The anti-PD1 antibody was administered IP. Body weight was measured daily. Tumor growth of the CT26 cells was monitored three times per week by measuring the tumor volume size using a caliper with the results shown in FIG. 5.

The mark [3] stands for this setting: oral, Table 2 summary of Example 27, values marked 1 are the average of experiments.

A word on the Ki: it is a measure of affinity in units of concentration, obtained from inhibition or displacement. What is called AUC is the area under the concentration-time curve, a measure of exposure. Read a low AUC as less exposure. The term bioavailability denotes dose-corrected exposure relative to a reference, in per cent. A lower bioavailability goes with little systemic uptake. The term Kp denotes the ratio of the level in a tissue or fluid to that in plasma or blood.

Turning to `[2H]C([2H])([2H])OC([2H])([2H])C([2H])([2H])Oc1ccc(N2CCN(C([2H])([2H])C([2H])([2H])N(c3cc4nc(-c5ncco5)nn4c(N)n3)C([2H])([2H])[2H])CC2)cc1` [Compound 16, N^7-(^2H3)methyl-N^7-[2-{4-[4-({2-[(^2H3)methyloxy](^2H4)ethyl}oxy)phenyl]piperazin-1-yl}(^2H4)ethyl]-2-(1,3-oxazol-2-yl)[1,2,4]triazolo[1,5-c]pyrimidine-5,7-diamine], the inhibition constant Ki at A1 receptor was over 100000 nM; at A3 receptor it was over 10000 nM; on A2A receptor it was 4 nM. In series [1] (Table 6, oral (PO) administration essentially as described in Example 28), the exposure (AUC) was found to be 1200 ng·h/mL. The clearance in series [1] (Table 6, essentially as described in Example 28) stood at 20 mL/min/kg. In series [1] (po, Table 6, oral (PO) administration essentially as described in Example 28), this compound showed a bioavailability of 58%. Further, the concentration ratio (Kp) at 1 h in series [2] (oral, 2.5 mg/kg, Table 6) is 0.06.

As for `COCCOc1ccc(N2CCN(CCN(C)c3cc4nc(-c5ccco5)nn4c(N)n3)CC2)cc1` [Reference compound, 2-(furan-2-yl)-N^7-(2-(4-(4-(2-methoxyethoxy)phenyl)piperazin-1-yl)ethyl)-N^7-methyl-[1,2,4]triazolo[1,5-c]pyrimidine-5,7-diamine, reference compound], the Ki at A1 receptor was determined as 1270 nM. The compound further displayed a clearance in series [1] (Table 2 summary of Example 27, values marked 1 are the average of experiments) of 34 mL/min/kg. For the same compound, in series [1] (setting [3]), the exposure (AUC) stood at 408 ng·h/mL and the bioavailability was found to be 34%. In series [2] (Table 2), the Kp at 1 h came out at 0.17. On A2A receptor, the inhibitory constant (Ki) amounted to 2.6 nM.

Consider Preladenant [reference compound], for which the “% TGI” value in the series on mouse CT-26 cells is 56^3%.

(Values after patent publication US12325708B2, “Adenosine 2 receptor antagonists” (Nektar Therapeutics, priority 2019, dated 2025).)
